Results reported in patent publication US5326902A, “Oxyalkyne compounds, pharmaceutical compositions containing them and processes for preparing such compounds and compositions” (Gruenenthal GmbH, priority 1992, dated 1994).
pIC50: −log10 of the molar value.

Columns and labels:
[1] = target: T1, 5-lipoxygenase (Rattus norvegicus, UniProt P12527); test: Inhibition of 5-lipoxygenase in RBL-1-cells; assay type: cell-based; details: 20 μM [14C]-arachidonic acid, 20 μM calcium ionophore A 23 187, 10 minutes
T1 construct: endogenous in cells; host or cells: RBL-1 cells (rat basophilic leukemia)
T1 sequence (P12527 1-673): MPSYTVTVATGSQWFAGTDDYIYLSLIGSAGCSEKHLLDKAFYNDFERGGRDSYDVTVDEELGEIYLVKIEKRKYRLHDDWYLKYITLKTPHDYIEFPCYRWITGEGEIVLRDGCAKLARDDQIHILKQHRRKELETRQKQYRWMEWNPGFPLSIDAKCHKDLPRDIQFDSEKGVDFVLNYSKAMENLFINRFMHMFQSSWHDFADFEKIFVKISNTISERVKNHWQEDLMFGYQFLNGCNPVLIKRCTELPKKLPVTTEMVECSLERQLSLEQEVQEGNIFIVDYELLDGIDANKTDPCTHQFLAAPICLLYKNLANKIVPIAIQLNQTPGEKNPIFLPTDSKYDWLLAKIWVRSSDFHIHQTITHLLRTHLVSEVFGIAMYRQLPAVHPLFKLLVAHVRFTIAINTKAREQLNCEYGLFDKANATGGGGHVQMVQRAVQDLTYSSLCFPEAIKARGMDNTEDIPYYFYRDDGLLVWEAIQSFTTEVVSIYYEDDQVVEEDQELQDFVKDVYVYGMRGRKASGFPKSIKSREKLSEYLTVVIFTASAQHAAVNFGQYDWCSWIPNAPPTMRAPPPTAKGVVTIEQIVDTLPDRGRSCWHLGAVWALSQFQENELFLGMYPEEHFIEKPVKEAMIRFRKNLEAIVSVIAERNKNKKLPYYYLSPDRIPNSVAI
Method: To determine the inhibition of 5-lipoxygenase, rat basophilic leukemia cells (RBL-1-cells) were cultured in vitro, harvested by centrifugation, washed with 50 mM potassium phosphate buffer of pH 7.4, and then suspended in this buffer at 1×10^7 cells/ml. Indomethacin (10 μM) and calcium chloride (2 mM) were added to 1 ml portions of this suspension, and then the mixture was incubated either in the presence of a compound according to the invention in a concentration range of from 0,1 μM to 100 μM or in the presence of a solvent (ethanol and/or dimethyl sulfoxide) for 3 minutes and thereafter with 20 μM of [^14 C]-arachidonic acid and 20 μM of calcium ionophore A 23 187 for 10 minutes. The reaction was stopped by adding 20 μl of glacial acetic acid, and then the mixture was extracted with ethyl acetate to isolate the metabolites of arachidonic acid formed by the enzymatic action of 5-lipoxygenase. These were separated by thin layer chromatography using a solvent mixture known to be suitable for lipoxygenase products [c.f. Jakschik et al., Biochem. Biophys. Res. Commun. 102, 624 (1981)].
The distribution of radioactivity among the different metabolites of arachidonic acid was measured using a TLC Linear Analyzer. By correlating the percentage amounts of the products formed under the action of 5-lipoxygenase (5HETE, isomers of LTB4) in the absence as well as in the presence of different concentrations of compounds according to the invention, the IC50 -values, i.e. the concentrations which cause a 50% inhibition of 5-lipoxygenase, were determined graphically from semilogarithmic plots.

[2] = system: bronchoconstriction elicited by ovalbumin; test: Allergen-induced bronchoconstriction in guinea pigs (Konzett-Rossler); assay type: in vivo, guinea pig; details: Cavia porcellus, 1 h; oral, 60 minutes before ovalbumin (0.2 mg/kg intravenous); passively sensitized guinea pigs; read-out: ED40-Value (40% average inhibition of the bronchoconstriction elicited by ovalbumin)
Method: The anti-asthmatic effect of compounds according to the invention was tested in anesthetized and ventilated guinea pigs. To induce an asthmatic reaction, the animals were passively sensitized by a single intraperitoneal injection of anti-ovalbumin serum. After 48 hours, the asthmatic reaction was elicited by intravenous challenge with 0.2 mg/kg of ovalbumin. The immediately resulting bronchoconstriction was measured as an increase in intratracheal pressure. Effects caused by histamine, serotonin and sympathic counterreaction were eliminated by intravenous pretreatment with 2.15 mg/kg of mepyramine, 46.4 μg/kg of propranolol, 4.64 mg/kg of atropine and 1 mg/kg of methysergide, all administered 5 minutes before challenge. Compounds according to the invention were administered orally 60 minutes before the administration of ovalbumin. The following […] for the inhibition of the bronchoconstriction elicited by ovalbumin, i.e. the effective doses causing a 40% average inhibition of the bronchoconstriction, were determined: […]

[3] = target: T1, 5-lipoxygenase; test: Inhibition of Cell-free 5-lipoxygenase from RBL-1-cells (polarographic, 10,000 × g supernatant); assay type: biochemical; details: 10,000 × g supernatant of homogenized RBL-1-cells; arachidonic acid 75 μM; 35° C.; calculated IC50
Method: Cell-free 5-lipoxygenase was polarographically measured from 10,000 × g supernatant of homogenized rat basophilic leucemia cells (M. Haurand & L. Flohe in Biol. Chem. Hoppe-Seyler 369, 133 to 142 (1988)). After preincubation of the 10,000 × g supernatant with arachidonic acid (75 μM), ATP (adenosine triphosphate; 4 mM), reduced glutathione (4 mM), and either a compound according to the invention (0.1 to 100 μM) or a solvent (ethanol and/or dimethyl sulfoxide) at 35° C. for 5 minutes, the lipoxygenase reaction was initiated by addition of calcium chloride (3 mM) and simultaneously recorded.
The activity of 5-lipoxygenase was determined from the difference in the pO2 -decrease before and after addition of calcium chloride. The evaluation included the initial rate of the reaction after the lag-phase as well as the duration of the lag-phase. In the concentration range of from 3 to 50 μM, the test substances induced lag-phases between 20 and 60 seconds.

[4] = system: 5-lipoxygenase; test: Inhibition of 5-lipoxygenase in Rat Blood After Oral Administration (ex vivo iLTB4-formation); details: male Wistar rats, one hour after administration
Method: The bioavailability of the compounds of formula I as 5-lipoxygenase inhibitors was characterized by means of an ex vivo biochemical assay method described by Tateson et al. in Brit. J. Pharmacol. 94, 528 (1988): A compound of formula I was orally administered to male rats (Wistar strain) at a dose of 21.5 mg/kg. After lethal CO2 -narcosis one hour after administration, the rats were bled by heart puncture with added heparin as an anticoagulant. Aliquots of the whole blood were incubated at 37° C. for 30 minutes in a water bath with calcium ionophore A 23 187 at an end concentration of 15 μg/ml. At the end of the incubation, the samples were centrifuged, and the concentration of the immunoreactive LTB4 (iLTB4) in aliquots of cell-free plasma was determined by radioimmunoassay (3H-LTB4 -RIA, Amersham). To enable calculation of the inhibition in percent of ex vivo iLTB4 -formation in whole rat blood treated with a compound according to the invention, rats orally treated with an appropriate vehicle solution were included in all experiments, and aliquots of their blood were run in parallel and were processed in the same way as described. The average iLTB4 -content of the plasma of the vehicletreated rats served as a 100% value. The activity in percent of the ex vivo iLTB4 -formation after oral administration of a compound according to the invention was calculated by dividing the average value of the iLTB4 -contents in ng iLTB4 /ml of the group treated with a compound according to the invention by the average value of the iLTB4 -contents in ng iLTB4 /ml of the vehicle treated group and subsequent multiplication by a factor of 100. The respective inhibition in percent was calculated by subtracting the activity in percent from 100.

Structure (SMILES) | pIC50 [1] | pIC50 [3] | other results
CC(=O)N(O)Cc1ccc(C(O)C#Cc2ccccc2)cc1 (single isomer, unassigned; (+)) [Example 2, (+)-N-Hydroxy-N-[4-[1-hydroxy-3-phenyl-prop-2-yn-1-yl]benzyl]acetamide] | 5.40 | – | –
CC(=O)N(O)Cc1ccc(C(O)C#Cc2ccccc2)cc1 (single isomer, unassigned; (-)) [Example 3, (-)-N-Hydroxy-N-[4-[1-hydroxy-3-phenyl-prop-2-yn-1-yl]benzyl]acetamide] | 5.30 | – | ED40 [2]: 9 mg/kg
CC(=O)OC(C#Cc1ccccc1)c1ccc(CN(O)C(C)=O)cc1 (centres unmarked) [Example 4, N-Hydroxy-N-[4-[1-acetoxy-3-phenyl-prop-2-yn-1-yl]benzyl]acetamide] | 5.40 | 5.05 | –
CCOC(C#Cc1ccccc1)c1ccc(CN(O)C(C)=O)cc1 (centres unmarked) [Example 5] | 5.40 | 5.30 | –
CC(=O)N(O)C(C)c1ccc(C(O)C#Cc2ccccc2)cc1 (centres unmarked) [Example 6, N-Hydroxy-N-[1-[4-(1-hydroxy-3-phenyl-prop-2-yn-1-yl)phenyl]ethyl]acetamide] | – | 5.10 | –
CC(=O)N(O)Cc1ccc(C(O)C#Cc2ccccc2Cl)cc1 (centres unmarked) [Example 9, N-Hydroxy-N-[4-[1-hydroxy-3-(2-chlorophenyl)prop-2-yn-1-yl]benzyl]acetamide] | 5.40 | – | –
CC(=O)N(O)Cc1ccc(C(O)C#Cc2cccc(Cl)c2)cc1 (centres unmarked) [Example 10, N-Hydroxy-N-[4-[1-hydroxy-3-(3-chlorophenyl)prop-2-yn-1-yl]benzyl]acetamide] | 5.40 | – | Inhibition [%] of ex vivo iLTB4-formation ([4]; 21.5 mg/kg oral): 75%
CC(=O)N(O)Cc1ccc(C(O)C#Cc2ccc(Cl)cc2)cc1 (centres unmarked) [Example 11, N-Hydroxy-N-[4-[1-hydroxy-3-(4-chlorophenyl)prop-2-yn-1-yl]benzyl]acetamide] | 5.10 | – | Inhibition [%] of ex vivo iLTB4-formation ([4]; dose 10 mg/kg, oral): 95%
COc1cccc(C#CC(O)c2ccc(CN(O)C(C)=O)cc2)c1 (centres unmarked) [Example 13, N-Hydroxy-N-[4-[1-hydroxy-3-(3-methoxyphenyl)prop-2-yn-1-yl]benzyl]acetamide] | 5.52 | 5.52 | –
CC(=O)N(O)Cc1ccc(C(O)C#Cc2cccc3ccccc23)cc1 (centres unmarked) [Example 15, N-Hydroxy-N-[4-[1-hydroxy-3-(1-naphthyl)prop-2-yn-1-yl]benzyl]acetamide] | 5.52 | 5.15 | Inhibition [%] of ex vivo iLTB4-formation ([4]; 21.5 mg/kg oral): 71%
CC(=O)N(O)Cc1ccc(C(O)C#Cc2ccsc2)cc1 (centres unmarked) [Example 17, N-Hydroxy-N-[4-[1-hydroxy-3-(3-thienyl)prop-2-yn-1-yl]benzyl]acetamide] | 5.30 | – | Inhibition [%] of ex vivo iLTB4-formation ([4]; 21.5 mg/kg oral): 77%
CC(=O)N(O)Cc1cccc(C(O)C#Cc2ccccc2)c1 (centres unmarked) [Example 19, N-Hydroxy-N-[3-[1-hydroxy-3-phenyl-prop-2-yn-1-yl]benzyl]acetamide] | 5.52 | – | –
CC(=O)N(O)Cc1cccc(C(O)C#Cc2ccsc2)c1 (centres unmarked) [Example 20, N-Hydroxy-N-[3-[1-hydroxy-3-(3-thienyl)prop-2-yn-1-yl]benzyl]acetamide] | – | 5.15 | –
NC(=O)N(O)Cc1ccc(C(O)C#Cc2ccccc2Cl)cc1 (centres unmarked) [Example 22, N-Hydroxy-N-[4-[1-hydroxy-3-(2-chlorophenyl)prop-2-yn-1-yl]benzyl]urea] | 5.40 | 5.10 | Inhibition [%] of ex vivo iLTB4-formation ([4]; dose 10 mg/kg, oral): 83%
NC(=O)N(O)Cc1ccc(C(O)C#Cc2cccc(Cl)c2)cc1 (centres unmarked) [Example 23, N-Hydroxy-N-[4-[1-hydroxy-3-(3-chlorophenyl)prop-2-yn-1-yl]benzyl]urea] | 5.40 | – | ED40 [2]: 18 mg/kg
NC(=O)N(O)Cc1ccc(C(O)C#Cc2ccc(Cl)cc2)cc1 (centres unmarked) [Example 24, N-Hydroxy-N-[4-[1-hydroxy-3-(4-chlorophenyl)prop-2-yn-1-yl]benzyl]urea] | 5.52 | – | –
COc1cccc(C#CC(O)c2ccc(CN(O)C(N)=O)cc2)c1 (centres unmarked) [Example 26, N-Hydroxy-N-[4-[1-hydroxy-3-(3-methoxyphenyl)prop-2-yn-1-yl]benzyl]urea] | 5.40 | – | ED40 [2]: 17 mg/kg
NC(=O)N(O)Cc1ccc(C(O)C#Cc2cccs2)cc1 (centres unmarked) [Example 27, N-Hydroxy-N-[4-[1-hydroxy-3-(2-thienyl)prop-2-yn-1-yl]benzyl]urea] | 5.52 | – | –
NC(=O)N(O)Cc1ccc(C(O)C#Cc2ccsc2)cc1 (centres unmarked) [Example 28, N-Hydroxy-N-[4-[1-hydroxy-3-(3-thienyl)prop-2-yn-1-yl]benzyl]urea] | 5.40 | – | ED40 [2]: 17 mg/kg
NC(=O)N(O)Cc1cccc(C(O)C#Cc2ccccc2)c1 (centres unmarked) [Example 29, N-Hydroxy-N-[3-[1-hydroxy-3-phenyl-prop-2-yn-1-yl]benzyl]urea] | 5.40 | – | –
CCOC(C#Cc1ccc(OC)c(OC)c1)c1ccc(CN(O)C(C)=O)cc1 (centres unmarked) [Example 33, N-Hydroxy-N-[4-[1-ethoxy-3-(3,4-dimethoxyphenyl)prop-2-yn-1-yl]benzyl]acetamide] | 5.30 | 5.22 | –
CCOC(C#Cc1cccs1)c1ccc(CN(O)C(N)=O)cc1 (centres unmarked) [Example 35, N-Hydroxy-N-[4-[1-ethoxy-3-(2-thienyl)prop-2yn-1-yl]benzyl]urea] | 5.52 | 5.30 | –
